Measurements taken from the NIST ThermoML archive (doi:10.1021/je301164d).

Conditions: Fluid (supercritical or subcritical phases)

CC(F)(F)CC(F)(F)F [1,1,1,3,3-pentafluorobutane]
Conditions	speed of sound [m/s]
320 K, 60148 kPa	963.25
320 K, 70155 kPa	1000.1
320 K, 80162 kPa	1034.6
320 K, 90169 kPa	1067.1
320 K, 100176 kPa	1098
320.01 K, 1103.1 kPa	652.28
340 K, 1105.8 kPa	578.15
340 K, 2106.4 kPa	587.65
340 K, 3107 kPa	596.83
340 K, 4107.5 kPa	605.73
340 K, 5108.1 kPa	614.36
340 K, 6109.1 kPa	622.75
340 K, 7109.7 kPa	630.92
340 K, 8108.9 kPa	638.86
340 K, 9109.4 kPa	646.62
340 K, 10110 kPa	654.2
340 K, 12611 kPa	672.43
340 K, 15113 kPa	689.74
340 K, 17614 kPa	706.24
340 K, 20116 kPa	722.03
340 K, 25119 kPa	751.78
340 K, 30122 kPa	779.47
340 K, 35124 kPa	805.42
340 K, 40128 kPa	829.93
340 K, 45131 kPa	853.19
340 K, 50135 kPa	875.34
340 K, 60142 kPa	916.86
340 K, 70150 kPa	955.26
340 K, 80157 kPa	991.12
340 K, 90164 kPa	1024.8
340 K, 100171 kPa	1056.7
360 K, 1102.1 kPa	503.74
360 K, 2102.7 kPa	515.2
360 K, 3103.3 kPa	526.14
360 K, 4104 kPa	536.64
360 K, 5104.8 kPa	546.73
360 K, 6106.2 kPa	556.45
360 K, 7106.9 kPa	565.84
360 K, 8107.7 kPa	574.94
360 K, 9108.4 kPa	583.75
360 K, 10109 kPa	592.32
360 K, 12611 kPa	612.74
360 K, 15113 kPa	631.92
360 K, 17615 kPa	650.07
360 K, 20117 kPa	667.31
360 K, 25120 kPa	699.5
360 K, 30124 kPa	729.19
360 K, 35127 kPa	756.83
360 K, 40130 kPa	782.78
360 K, 45134 kPa	807.28
360 K, 50137 kPa	830.52
360 K, 60144 kPa	873.89
360 K, 70151 kPa	913.8
360 K, 80158 kPa	950.91
360 K, 90165 kPa	985.68
360 K, 100172 kPa	1018.5
379.99 K, 1100.8 kPa	427.28
379.99 K, 2101.7 kPa	441.66
379.99 K, 3102.1 kPa	455.12
379.99 K, 4102.7 kPa	467.8
379.99 K, 5103.4 kPa	479.82
379.99 K, 6104.7 kPa	491.27
379.99 K, 7105.5 kPa	502.21
379.99 K, 8106.3 kPa	512.71
379.99 K, 9107.5 kPa	522.81
379.99 K, 10108 kPa	532.54
379.99 K, 12610 kPa	555.5
379.99 K, 15112 kPa	576.81
379.99 K, 17614 kPa	596.76
379.99 K, 20116 kPa	615.56
379.99 K, 25119 kPa	650.34
379.99 K, 30123 kPa	682.08
379.99 K, 35126 kPa	711.42
379.99 K, 40130 kPa	738.79
379.99 K, 45134 kPa	764.51
379.99 K, 50137 kPa	788.83
379.99 K, 60144 kPa	833.97
379.99 K, 70151 kPa	875.31
379.99 K, 80158 kPa	913.6
379.99 K, 90166 kPa	949.39
379.99 K, 100173 kPa	983.05
400 K, 1605.2 kPa	355.52
400 K, 2105.7 kPa	364.94
400 K, 3106.4 kPa	382.38
400 K, 4107.2 kPa	398.31
400 K, 5108.1 kPa	413.05
400 K, 6107.8 kPa	426.8
400 K, 7108.6 kPa	439.76
400 K, 8109.4 kPa	452.03
400 K, 9110.2 kPa	463.7
400 K, 10111 kPa	474.85
400 K, 12613 kPa	500.78
400 K, 15114 kPa	524.48
400 K, 17616 kPa	546.39
400 K, 20118 kPa	566.86
400 K, 25122 kPa	604.31
400 K, 30125 kPa	638.14
400 K, 35128 kPa	669.16
400 K, 40132 kPa	697.92
400 K, 45135 kPa	724.83
400 K, 50138 kPa	750.16
400 K, 60145 kPa	796.98
400 K, 70152 kPa	839.66
400 K, 80159 kPa	879.05
400 K, 90166 kPa	915.76
400 K, 100174 kPa	950.23
419.99 K, 2103.3 kPa	280.02
419.99 K, 3102.8 kPa	305.08
419.99 K, 4103.6 kPa	326.49
419.99 K, 5104.3 kPa	345.41
419.99 K, 6105 kPa	362.51
419.99 K, 7105.6 kPa	378.2
419.99 K, 8106.4 kPa	392.76
419.99 K, 9107.1 kPa	406.4
419.99 K, 10108 kPa	419.26
